Experimental data reported in PubChem BioAssay (NCI).
Several values for one entry are separate records, joined by “and”; a condition that tells them apart may be missing. Equal entries are not always repeated.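 Each compound was tested at five concentrations against cells in 96-well plates for 48 hours. GI50 marks 50% less growth. TGI denotes the concentration required for complete inhibition of growth.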

How the values were obtained:
Test in all cases: NCI-60 cell line screen, 48 h
LOX IMVI melanoma = tested on: LOX IMVI melanoma
NCI-H23 lung = tested on: NCI-H23 lung
IGROV1 ovarian = tested on: IGROV1 ovarian
HT29 colon = tested on: HT29 colon
MOLT-4 leukemia = tested on: MOLT-4 leukemia
HS 578T breast = tested on: HS 578T breast
SR leukemia = tested on: SR leukemia
NCI-H226 lung = tested on: NCI-H226 lung
TK-10 renal = tested on: TK-10 renal
UO-31 renal = tested on: UO-31 renal

Structure (SMILES) | TGI (LOX IMVI melanoma) | TGI (NCI-H23 lung) | TGI (IGROV1 ovarian) | TGI (HT29 colon) | TGI (MOLT-4 leukemia) | TGI (HS 578T breast) | TGI (SR leukemia) | TGI (NCI-H226 lung) | TGI (TK-10 renal) | TGI (UO-31 renal) | GI50 (LOX IMVI melanoma) | GI50 (NCI-H23 lung) | GI50 (IGROV1 ovarian) | GI50 (HT29 colon) | GI50 (MOLT-4 leukemia) | GI50 (HS 578T breast) | GI50 (SR leukemia) | GI50 (NCI-H226 lung) | GI50 (TK-10 renal) | GI50 (UO-31 renal)
C#CC1(OC(C)=O)CCC2C3CC=C4C=C(OC(C)=O)CCC4(C)C3CCC21C (stereo not drawn) | 53.2 µM | 47.1 µM | 35.9 µM | 40 µM | 33.3 µM | > 100 µM | 35 µM | 63 µM | 51.6 µM | 54.4 µM | – | – | – | – | – | – | – | – | – | –
O=S(=O)(NCCCNc1nccc(-c2c(-c3ccc(F)c(O)c3)nc3sccn23)n1)c1ccc(F)cc1 | 5.53 µM | 7.39 µM | 5.88 µM | 37.8 µM | 5.57 µM | 7.07 µM | > 100 µM | 6.98 µM | 86.3 µM | 7.77 µM | 0.578 µM | 2.31 µM | 1.51 µM | 2.94 µM | 1.73 µM | 2.62 µM | 2.13 µM | 2.38 µM | 4.33 µM | 2.96 µM
COc1cccc(/C=C/[N+](=O)[O-])c1 | 3.12 µM | 12.6 µM | 6.51 µM | 4.48 µM | 11.9 µM | 55.5 µM | 5.18 µM | 65.3 µM | – | 3.4 µM | 1.66 µM | 3.21 µM | 2.4 µM | 1.92 µM | 3.06 µM | 15.8 µM | 1.64 µM | 26.2 µM | – | 1.68 µM
C[C@]12CC[C@H](OC3OC(CO)C(O)C(O)C3O)C[C@H]1CC[C@@H]1[C@@H]2CC[C@]2(C)[C@@H](C3=CCOC3=O)CC[C@]12O (stereo partly drawn) | 25.3 µM and > 100 µM | 50 µM and > 100 µM | 50 µM and > 100 µM | 50 µM and > 100 µM | 50 µM and > 100 µM | > 100 µM | > 100 µM | 26.4 µM and > 100 µM | > 100 µM | 50 µM and > 100 µM | > 100 µM | > 100 µM | > 100 µM | > 100 µM | 22.5 µM and > 100 µM | – | – | – | – | > 100 µM
C=C(CN1CCN(c2cccc(C(F)(F)F)n2)CC1)c1ccc(C(=O)Nc2ccccc2N)cc1 | > 100 µM | > 100 µM | 26.9 µM and 7.29 µM | – | > 100 µM | – | > 100 µM | > 100 µM | > 100 µM and 35.4 µM | 72.2 µM and > 76.6 µM | 1.5 µM and 0.496 µM | 14.1 µM and 1.8 µM | 2.01 µM and 0.365 µM | 0.565 µM and 0.341 µM | 0.855 µM and 0.478 µM | 0.448 µM and 0.194 µM | > 39.1 µM | 13.4 µM and 20.9 µM | – | 2.76 µM and 0.465 µM
O=c1ccs[nH]1 | 18.4 µM | 43.7 µM | 66.5 µM | 34.4 µM | 25 µM | 49.7 µM | 16.4 µM | 71.6 µM | 32.8 µM | 23 µM | – | – | – | – | – | – | – | – | – | –
C=C(NC(=O)C(=C)NC(=O)c1csc(C2=NC3c4csc(n4)C4NC(=O)c5csc(n5)C(C(C)(O)C(C)O)NC(=O)C5CSC(=N5)C(=CC)NC(=O)C(C(C)O)NC(=O)c5csc(n5)C3(CC2)NC(=O)C(C)NC(=O)C(=C)NC(=O)C(C)NC(=O)C(C(C)CC)NC2C=Cc3c(C(C)O)cc(nc3C2O)C(=O)OC4C)n1)C(N)=O (stereo not drawn) | > 100 µM | > 100 µM | > 100 µM | > 100 µM | 5.55 µM | > 100 µM | 69.1 µM | 7.71 µM | > 100 µM | > 100 µM | 3.7 µM | 13.7 µM | 64.8 µM | 10.4 µM | 2.08 µM | > 100 µM | – | 2.18 µM | 65.5 µM | 11.4 µM
CC(C)C[C@H](NC(=O)Cn1ccc(NCc2ccccc2)cc1=O)B(O)O | 2.31 µM | > 100 µM | 54.7 µM | 8.41 µM | – | 85.3 µM | 14.5 µM | 5.84 µM | 5.23 µM | 10.6 µM | 0.606 µM | 5.01 µM | 8.05 µM | 0.814 µM | 0.319 µM | 3.33 µM | 0.281 µM | 1.19 µM | 0.472 µM | 1.21 µM
C=C1C(C2(C)C(OC(C)=O)CC(=O)OC(C)(COC(C)=O)C2CC(=O)OC)C(OC=O)C(OC(=O)C(O)C(C)CC)C2(C)C(c3ccoc3)CC(=O)C12O (stereo not drawn) | > 100 µM | > 100 µM | > 100 µM | > 100 µM | > 100 µM | > 100 µM | > 100 µM | > 100 µM | > 100 µM | 18.1 µM | – | – | – | – | – | – | – | – | – | –
O=C(O)CCCSc1ccccc1 | > 100 µM | > 100 µM | > 100 µM | > 100 µM | > 100 µM | > 100 µM | > 100 µM | > 100 µM | > 100 µM | > 100 µM | – | – | – | – | – | – | – | – | – | –
NC[C@H]1Nc2ccccc2[C@@H](O)C1O (stereo partly drawn) | > 100 µM | > 100 µM | > 100 µM | > 100 µM | > 100 µM | > 100 µM | > 100 µM | > 100 µM | > 100 µM | > 100 µM | – | – | – | – | – | – | – | – | – | –
CCCN(CCC)c1ccc(/C=C/c2ccc3cc(OCC)ccc3n2)cc1 | > 100 µM | > 100 µM | > 100 µM | > 100 µM | > 100 µM | > 100 µM | > 100 µM | > 100 µM | > 100 µM | > 100 µM | > 100 µM | 36.7 µM | > 100 µM | 15 µM | > 100 µM | > 100 µM | 13.8 µM | 58.6 µM | > 100 µM | > 100 µM
O=C1CC(=O)N(C(=O)c2nn(-c3ccc(Cl)cc3)cc2O)N1 | > 100 µM | > 100 µM | 20.2 µM | > 50.4 µM | > 41.7 µM | > 100 µM | 5.04 µM | > 96.6 µM | > 65.2 µM | > 100 µM | 1.15 µM | 0.493 µM | 0.378 µM | 0.585 µM | 0.403 µM | 0.136 µM | 0.26 µM | 0.724 µM | 0.35 µM | 0.529 µM
C/C(=N\Nc1cc(C)c2ccccc2n1)c1ccccn1 | 1.31 µM | 8.49 µM | 1.49 µM | 1.8 µM | 0.489 µM | 16.2 µM | 2.39 µM | 2.71 µM | 2.76 µM | 0.903 µM | 0.0807 µM | 0.172 µM | – | 0.0408 µM | < 0.0381 µM | 1.91 µM | < 0.0293 µM | 0.225 µM | – | < 0.0377 µM
C[C@@H](O)[C@H](NC(=O)N[C@@H](CC(N)=O)c1nc([C@@H](N)CO)no1)C(=O)O | > 100 µM | > 100 µM | > 100 µM | > 100 µM | > 100 µM | > 100 µM | > 100 µM | > 100 µM | > 100 µM | > 100 µM | > 100 µM | > 100 µM | > 100 µM | > 100 µM | > 100 µM | > 100 µM | > 100 µM | > 100 µM | > 100 µM | > 100 µM
CC1=C(C(=O)Nc2ccc(Cl)c(Cl)c2)C(c2cccc(Cl)c2)NC(=O)N1 (stereo not drawn) | 16.2 µM | 28.5 µM | 21.6 µM | – | > 23.3 µM | 22.6 µM | > 50 µM | 18.6 µM | 0.346 µM | 15.9 µM | 7.66 µM | 12.7 µM | 7.51 µM | – | 4.99 µM | 9.68 µM | 22.3 µM | 7.69 µM | 0.22 µM | 8.2 µM
c1ccc2c(NCCCCCCNc3c4ccccc4nc4ccccc34)c3ccccc3nc2c1 | 1.45 µM | 2.33 µM | – | 1.77 µM | 0.212 µM | 3.05 µM | 0.991 µM | 3.54 µM | 4.9 µM | 23.5 µM | – | – | – | – | – | – | – | – | – | –
O=c1cc(N2CCN(CCCCCOc3cc(O)c4c(=O)cc(-c5ccccc5)oc4c3)CC2)c2ccccc2o1 | > 100 µM | 0.475 µM | > 100 µM | > 100 µM | – | > 100 µM | > 100 µM | > 100 µM | > 100 µM | > 100 µM | 51.2 µM | 0.218 µM | 47.4 µM | 17.4 µM | – | > 100 µM | 42.9 µM | 23.9 µM | > 100 µM | 50.8 µM
Cc1ccc(NC2=C(Cl)C(=O)N(Cc3ccc(Cl)cc3)C2=O)cc1O | 32.1 µM | 23.7 µM | 33 µM | – | > 100 µM | 75.8 µM | > 100 µM | 13.3 µM | 32.4 µM | 69 µM | 4.09 µM | 5.56 µM | 11.2 µM | – | > 100 µM | 16.4 µM | 71.4 µM | 2.55 µM | 15.2 µM | 17.6 µM
COc1ccc(-c2oc(=O)ccc2-c2cc(OC)c(OC)c(OC)c2)cc1O | 45.3 µM | > 100 µM | – | > 47.3 µM | > 100 µM | > 29.4 µM | > 23.8 µM | > 96 µM | > 84.1 µM | > 51.1 µM | 1.65 µM | 3.91 µM | – | 3.97 µM | 2.01 µM | 1.51 µM | 0.267 µM | 9.81 µM | 14.1 µM | 3.72 µM
